tested on: human KRAS G12C mutated cell line MIA PaCa-2; test: Inhibition of proliferation of MIA PaCa-2 cells (CellTiter-Glo, 7 day); assay type: cell-based; details: 168 h, Table 3, 7 day, mean, read-out: MIA PaCa-2 IC50 (μM) 7 day Mean
From the text: The present example evaluates the ability of compounds provided herein to inhibit proliferation of KRAS mutant cells.
The proliferation inhibitory effect was investigated in the human KRAS G12C mutated cell line MIA PaCa-2 (Yunis et al., 1977, Int. J. Cancer 19(1):128-135; ATCC catalog no. CRL-1420). Cells were maintained in RPMI-1640 medium (ThermoFisher catalog no. 61870036) supplemented with 10% of Heat Inactivated FBS (ThermoFisher catalog no. A31605) and 1% Pen-Strep (ThermoFisher catalog no. 10378016) and cultured at 37° C. in a humidified incubator with 5% CO2. Cell lines were grown by adhering to culture flasks, and the cells were maintained in a range 70%-80% confluency.
ATP is present in all metabolically active cells and is considered as a marker for cell viability and proliferation. Metabolic cell activity was determined using the CellTiter-Glo kit (Promega catalog no. G7572), an ATP monitoring system based on the production of luminescence by the reaction of ATP with added UltraGlo® recombinant luciferase (Kawano et al., 2016, PLOS One, 8; 11(7):e0158888), according to the supplier's experimental recommendations. The assay was based on a 96 well plate format.
Test compounds were dissolved at 10 mM in DMSO (Sigma catalog no. D8418; purity >99.9%) and stored at −20° C. Eight concentrations of test compound were assessed in duplicate in an individual test occasion in parallel in the selected cell lines. MRTX-849 and AMG-510 were used as reference compounds and tested in duplicate at eight concentrations. 100% of proliferation is represented by the untreated cells (0.2% DMSO).
(§1) On the day of the experiment (TO), cells were detached with TrypLE (ThermoFisher catalog no. 12604054) and quantified using the Vi-CELL XR Cell Viability (Beckman Coulter) analyzer and diluted with fresh medium to obtain the cell density of about 1000 cells per 200 μL medium. 200 μL of cell suspension were added into wells in the 96 well plate.
After 2 hours from seeding cells, compounds were added using a D300e compound dispenser (Tecan Trading AG) at desired concentrations with shaking between each compound dispensed. Cell plates containing 200 μL/well were incubated at 37° C. in a humidified incubator with 5% CO2.
On day T3, 150 μL of growth media per well were removed from plates containing the samples, 150 uL fresh growth media were added to each well, and fresh compounds were added using a D300e compound dispenser (Tecan Trading AG) at desired concentrations with shaking between each compound dispensed. Cell plates containing 200 uL/well were incubated at 37° C. in a humidified incubator with 5% CO2. On day T7 plates containing the samples were equilibrated at room temperature for approximately 15 min, and then 40 μL/well of the Promega CellTiterGlo® reagent was added. Contents were mixed for 30 minutes on an orbital shaker to induce cell lysis. Luminescence was read using a Synergy Neo 2 (Agilent Technologies.
Data was expressed as % of inhibition compared to the 0.2% DMSO negative control, and is calculated as follows: % inhibition=100−[(RLU sample)×100/(RLU controls*)], where * indicates the average for 0.2% DMSO. […]
as §1, with “12604054),” for “12604054) and”, “resuspended in” for “diluted with”, “at a” for “to obtain the”, “to each well of a” for “into wells in the”
Two hours after seeding cells, compounds were added at desired concentrations using a D300e compound dispenser (Tecan Trading AG) with shaking after each compound addition. Assay plates were incubated at 37° C. in a humidified incubator with 5% CO2.
On day 3 (T3) 150 μL of medium from assay plates were removed. 150 μL fresh medium and compounds were added at desired concentrations using a D300e compound dispenser (Tecan Trading AG) with shaking after each compound addition. […]

Question: Which IC50 does the source give for C#Cc1c(F)ccc2cccc(-c3ncc4c(N5CC6CCC(C5)N6C(=O)C=C)nc(OCC56CCCN5CCC6)nc4c3F)c12 [Compound 303, 1-[3-[7-(8-ethynyl-7-fluoro-1-naphthyl)-8-fluoro-2-(1,2,3,5,6,7-hexahydropyrrolizin-8-ylmethoxy)pyrido[4,3-d]pyrimidin-4-yl]-3,8-diazabicyclo[3.2.1]octan-8-yl]prop-2-en-1-one] here?
Answer: Its IC50 is 0.0006 µM.

Question: Which IC50 does the source give for C=CC(=O)N1C2CCC1CC(c1nc(OC[C@@]34CCCN3C[C@H](F)C4)nc3c(F)c(-c4cc(O)cc5ccc(F)c(F)c45)ncc13)C2 (stereo partly shown) [Compound 333] here?
Answer: Its IC50 is 1.75 µM.

Question: Which IC50 does the source give for C=CC(=O)N1C2CCC1CN(c1nc(OC[C@@]34CCCN3C[C@H](F)C4)nc3cc(-c4cccc5cccc(Cl)c45)c(F)cc13)C2 [Compound 321, 1-[3-[7-(8-chloro-1-naphthyl)-6-fluoro-2-[[(2R,8S)-2-fluoro-1,2,3,5,6,7-hexahydropyrrolizin-8-yl]methoxy]quinazolin-4-y1]-3,8-diazabicyclo[3.2.1]octan-8-yl]prop-2-en-1-one] here?
Answer: The IC50 was > 1 µM.

Question: For C=CC(=O)N1C2CCC1CN(c1nc(OC[C@@]34CCCN3C[C@H](F)C4)nc3cc(-c4cccc5cccc(Cl)c45)ccc13)C2 [Compound 324, 1-[3-[7-(8-chloro-1-naphthyl)-2-[[(2R,8S)-2-fluoro-1,2,3,5,6,7-hexahydropyrrolizin-8-yl]methoxy]quinazolin-4-y1]-3,8-diazabicyclo[3.2.1]octan-8-yl]prop-2-en-1-one], which IC50 is on record?
Answer: The IC50 was > 1 µM.

Question: How did the IC50 turn out when C=CC(=O)N1CCN(c2nc(OC[C@@]34CCCN3C[C@H](F)C4)nc3cc(-c4cccc5cccc(Cl)c45)c(F)cc23)CC12CC2 [Compound 323] was run?
Answer: The IC50 was > 1 µM.

Question: Which IC50 does the source give for C=CC(=O)N1CCC(c2nc(OC[C@@]34CCCN3C[C@H](F)C4)nc3c(F)c(-c4cc(O)cc(Cl)c4C4CC4)ncc23)CC1 [Compound 329] here?
Answer: Its IC50 is 0.0144 µM.

Question: Which IC50 does the source give for C=CC(=O)N1CCC(c2nc(OC[C@@]34CCCN3C[C@H](F)C4)nc3c(F)c(-c4cc(O)cc5ccc(F)c(F)c45)ncc23)C[C@@H]1C (stereo partly drawn) [Compound 331, 1-[(2S)-4-[7-(7,8-difluoro-3-hydroxy-1-naphthyl)-8-fluoro-2-[[(2R,8S)-2-fluoro-1,2,3,5,6,7-hexahydropyrrolizin-8-yl]methoxy]pyrido[4,3-d]pyrimidin-4-y1]-2-methyl-1-piperidyl]prop-2-en-1-one] here?
Answer: Its IC50 is 0.0373 µM.

Question: With C=CC(=O)N1CCC2(c3nc(OC[C@@]45CCCN4C[C@H](F)C5)nc4c(F)c(-c5cc(O)cc6ccccc56)ncc34)CC2C1 (stereo partly drawn) [Compound 310, 1-[6-[8-fluoro-2-[[(2R,8S)-2-fluoro-1,2,3,5,6,7-hexahydropyrrolizin-8-yl]methoxy]-7-(3-hydroxy-1-naphthyl)pyrido[4,3-d]pyrimidin-4-yl]-3-azabicyclo[4.1.0]heptan-3-yl]prop-2-en-1-one] as the compound, how does the IC50 read?
Answer: The IC50 was > 1 µM.

same assay, conditions: 168 h, Table 4, 7 day, mean, read-out: MIA PaCa-2 IC50 (μM) 7 day Mean

Question: For Oc1cc(Cl)c(C2CC2)c(-c2ccc3c(N4CC5CCC(C4)N5)cc(OC[C@@]45CCCN4C[C@H](F)C5)nc3c2F)c1 [Compound 429, 3-chloro-4-cyclopropyl-5-[4-(3,8-diazabicyclo[3.2.1]octan-3-yl)-8-fluoro-2-[[(2R,8S)-2-fluoro-1,2,3,5,6,7-hexahydropyrrolizin-8-y1]methoxy]-7-quinolyl]phenol], which IC50 is on record?
Answer: The IC50 was > 1 µM.

Question: For Oc1cc(Cl)c(C2CC2)c(-c2cnc3c(N4C[C@H]5C[C@@H]4CN5)nc(OC[C@@]45CCCN4C[C@H](F)C5)nc3c2)c1 [Compound 406, 3-chloro-4-cyclopropyl-5-[4-[(1R,4R)-2,5-diazabicyclo[2.2.1]heptan-2-yl]-2-[[(2R,8S)-2-fluoro-1,2,3,5,6,7-hexahydropyrrolizin-8-yl]methoxy]pyrido[3,2-d]pyrimidin-7-yl]phenol], which IC50 is on record?
Answer: The IC50 was > 1 µM.

Question: Which IC50 does the source give for Oc1cc(Cl)c(C2CC2)c(-c2ccc3c(N4CCNC5(CC5)C4)nc(OC[C@@]45CCCN4C[C@H](F)C5)nc3c2F)c1 [Compound 409, 3-chloro-4-cyclopropyl-5-[4-(4,7-diazaspiro[2.5]octan-7-yl)-8-fluoro-2-[[(2R,8S)-2-fluoro-1,2,3,5,6,7-hexahydropyrrolizin-8-yl]methoxy]quinazolin-7-yl]phenol] here?
Answer: Its IC50 is > 1 µM.

Question: How did the IC50 turn out when Oc1cc(-c2ncc3c(C45CCNCC4C5)nc(OC[C@@]45CCCN4C[C@H](F)C5)nc3c2F)c2ccccc2c1 (stereo partly drawn) [Compound 403, 4-[4-(3-azabicyclo[4.1.0]heptan-6-yl)-8-fluoro-2-[[(2R,8S)-2-fluoro-1,2,3,5,6,7-hexahydropyrrolizin-8-yl]methoxy]pyrido[4,3-d]pyrimidin-7-yl]naphthalen-2-ol] was run?
Answer: Its IC50 is 7.83 µM.

Question: Oc1cccc(Cl)c1-c1cc(OCC23CCCN2C[C@H](F)C3)c2c(N3CCNCC34CC4)nc(OC[C@@]34CCCN3C[C@H](F)C4)nc2c1 (stereo partly drawn) [Compound 420, 3-chloro-2-[4-(4,7-diazaspiro[2.5]octan-4-yl)-5-[[(2R)-2-fluoro-1,2,3,5,6,7-hexahydropyrrolizin-8-yl]methoxy]-2-[[(2R,8S)-2-fluoro-1,2,3,5,6,7-hexahydropyrrolizin-8-yl]methoxy]quinazolin-7-yl]phenol] was tested. Which IC50 did it give?
Answer: The IC50 was > 1 µM.

Question: Oc1cc(Cl)c(C2CC2)c(-c2cc3nc(OC[C@@]45CCCN4C[C@H](F)C5)nc(N4CC5CCC(C4)N5)c3cc2F)c1 [Compound 404, 3-chloro-4-cyclopropyl-5-[4-(3,8-diazabicyclo[3.2.1]octan-3-yl)-6-fluoro-2-[[(2R,8S)-2-fluoro-1,2,3,5,6,7-hexahydropyrrolizin-8-yl]methoxy]quinazolin-7-yl]phenol] was tested. Which IC50 did it give?
Answer: The IC50 was > 1 µM.

Question: For Oc1cc(Cl)c(C2CC2)c(-c2ncc3c(N4CCC5(CC4)CO5)nc(OC[C@@]45CCCN4C[C@H](F)C5)nc3c2F)c1 [Compound 437, 3-chloro-4-cyclopropyl-5-[8-fluoro-2-[[(2R,8S)-2-fluoro-1,2,3,5,6,7-hexahydropyrrolizin-8-yl]methoxy]-4-(1-oxa-6-azaspiro[2.5]octan-6-yl)pyrido[4,3-d]pyrimidin-7-yl]phenol], which IC50 is on record?
Answer: Its IC50 is > 1 µM.

Question: With F[C@H]1CN2CCC[C@@]2(COc2nc(N3CC4CCC(C3)N4)c3ccc(-c4cccc5cccc(Cl)c45)cc3n2)C1 [Compound 423] as the compound, how does the IC50 read?
Answer: The IC50 was > 1 µM.

Question: With Oc1cccc(Cl)c1-c1cc(F)c2c(N3C[C@H]4C[C@@H]3CN4)nc(OC[C@@]34CCCN3C[C@H](F)C4)nc2c1 [Compound 418] as the compound, how does the IC50 read?
Answer: Its IC50 is > 1 µM.

Question: Oc1cc(Cl)c(C2CC2)c(-c2ccc3c(C4CCNCC4)nc(OC[C@@]45CCCN4C[C@H](F)C5)nc3c2F)c1 [Compound 430, 3-chloro-4-cyclopropyl-5-[8-fluoro-2-[[(2R,8S)-2-fluoro-1,2,3,5,6,7-hexahydropyrrolizin-8-yl]methoxy]-4-(4-piperidyl)quinazolin-7-yl]phenol] was tested. Which IC50 did it give?
Answer: Its IC50 is 0.983 µM.

Question: CC1(c2nc(OC[C@@]34CCCN3C[C@H](F)C4)nc3c(F)c(-c4cc(O)cc5ccc(F)c(F)c45)ncc23)CCNCC1 [Compound 444] was tested. Which IC50 did it give?
Answer: The IC50 was 6.74 µM.

Question: Which IC50 does the source give for Oc1cc(Cl)c(C2CC2)c(-c2ncc3c(C4CCNCC4)nc(OC[C@@]45CCCN4C[C@H](F)C5)nc3c2F)c1 [Compound 433] here?
Answer: Its IC50 is > 1 µM.

Question: For CCC1(c2nc(OC[C@@]34CCCN3C[C@H](F)C4)nc3c(F)c(-c4cc(O)cc(Cl)c4C4CC4)ncc23)CCNCC1 [Compound 441], which IC50 is on record?
Answer: Its IC50 is > 1 µM.

Question: How did the IC50 turn out when Oc1cc(Cl)c(C2CC2)c(-c2ncc3c(N4CCC5(CC4)CN5)nc(OC[C@@]45CCCN4C[C@H](F)C5)nc3c2F)c1 [Compound 438, 3-chloro-4-cyclopropyl-5-[4-(1,6-diazaspiro[2.5]octan-6-yl)-8-fluoro-2-[[(2R,8S)-2-fluoro-1,2,3,5,6,7-hexahydropyrrolizin-8-yl]methoxy]pyrido[4,3-d]pyrimidin-7-yl]phenol] was run?
Answer: Its IC50 is 0.229 µM.

From patent US20240409558A1, “IRREVERSIBLE INHIBITORS OF KRAS” (BIOMEA FUSION, INC., priority 2021, published 2024)
